Experimental findings from PubChem BioAssay (NCI) are described below.

What all share (assay): growth of human tumour cells (NCI), 48 h
The subject of assay [1] is HOP-92 NSCLC.
Assay [2] concerns BT-549 breast.
The test system of assay [3] is A498 renal.
In assay [4] the test system is SF-295 CNS.
Assay [5] concerns HCT-116 colon.
In assay [6] the test system is SW-620 colon.
Assay [7] has as its system UACC-257 melanoma.
Assay [8] deals with HCT-15 colon.
In assay [9] the test system is UACC-62 melanoma.
Assay [10] concerns A549 NSCLC.

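Each compound was tested at five concentrations against cells in 96-well plates for 48 hours. GI50 marks 50% less growth. TGI is the concentration that stops growth completely.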

`Cn1c(=O)cc(NNc2ccc(Cl)c(Cl)c2)[nH]c1=O`: the TGI in [1] is 28.5 µM; in assay [2], 29.9 µM; in [3], more than 100 µM; in [4], 43.2 µM; in [5] it was 20.5 µM; in assay [6], 21.1 µM. The TGI in [7] is 28.6 µM; in assay [8] it was 18.5 µM; in [9] it was 16.8 µM; in [10] it was 36 µM.

As to `O=C(C(=C(I)I)c1ccccc1)c1ccccc1`, the TGI in [1] is 82.9 µM; in assay [2], more than 100 µM; in assay [3] it was 28.6 µM; in assay [4], 65.5 µM; in assay [5], 36.9 µM; in [6], more than 100 µM. Besides, the TGI was more than 100 µM in [7], more than 100 µM in assay [8], 53.4 µM in assay [9] and more than 100 µM in assay [10].

Regarding `Clc1ccc(/C(=C/c2ccccc2)Cn2ccnc2)cc1`, the TGI was 67.2 µM in assay [1]; 96.2 µM in assay [2]; 77.7 µM in assay [3]; more than 100 µM in assay [4]; more than 100 µM in [5]; more than 100 µM in assay [6]. Besides, the TGI in assay [7], in assay [8], in [9] and in assay [10] was more than 100 µM each time.

Regarding `CC(=O)Oc1ccn2nc(C)c(Br)c2c1`, the TGI in [1], in assay [2], in assay [3], in assay [4], in assay [5] and in [6] was more than 100 µM in each case. The TGI in [7] is 99.5 µM; in [8], more than 100 µM; in assay [9], more than 100 µM; in [10] it was more than 100 µM.

Take `CN1c2ccccc2C2=C(c3ccccc3)CC[C@@H](C(=O)N3C4CC5CC[C@@]4(CS3(=O)=O)C5(C)C)[C@@H]21` (stereo partly specified): the TGI in assay [1], in assay [2], in assay [3], in assay [4], in [5] and in assay [6] was more than 100 µM in each case. In addition, the TGI in assay [7], in assay [8], in [9] and in [10] was more than 100 µM in each case.

As to `CSc1ccc(/C=C2\N=C(c3ccccc3)N(c3nc4cc(Cl)c(F)cc4s3)C2=O)cc1`, the TGI in assay [1], in assay [2], in assay [3], in assay [4], in assay [5] and in assay [6] was more than 100 µM each time. The TGI in assay [7], in [8], in assay [9] and in [10] was more than 100 µM in each case.

On to `OC(CC(O)(C(F)(F)Cl)C(F)(F)Cl)c1ccccc1` (stereo unspecified), for which the TGI in assay [1] was more than 10 µM; in assay [2], more than 10 µM; in assay [3], 0.0548 µM; in assay [4], more than 10 µM; in [5] it was more than 10 µM; in assay [6], more than 10 µM. In addition, the TGI in assay [7], in assay [8], in assay [9] and in assay [10] was more than 10 µM throughout.

For `Cc1ccc(C)c(COCCOCn2cc(N3CCOCC3)c(=O)[nH]c2=O)c1`, the TGI in [1], in assay [2], in [3], in assay [4], in assay [5] and in [6] was more than 100 µM in each case. Besides, the TGI in [7], in assay [8], in assay [9] and in assay [10] was more than 100 µM in each case.

In the case of `Cc1nc2c(=O)n(-c3ccccc3)c(=O)n(-c3ccccc3)c2o1`, the TGI in assay [1], in assay [2], in [3], in [4], in assay [5] and in [6] was more than 100 µM in each case. Besides, the TGI in assay [7], in assay [8], in assay [9] and in [10] was more than 100 µM in each case.

`c1ccc2c(c1)cc1ccc3cccc4ccc2c1c34`: the TGI in [1], in assay [2], in assay [3], in [4], in assay [5] and in [6] was more than 100 µM in each case. Moreover, the TGI in [7], in [8], in assay [9] and in assay [10] was more than 100 µM in each case. In addition, the GI50 in [3] was more than 100 µM.

For `CC1=NN2C(=N)/C(=C/c3ccc(F)cc3)C(=O)N=C2S1`, the TGI in assay [1], in assay [2], in assay [3], in assay [4], in assay [5] and in assay [6] was more than 100 µM each time. The TGI in assay [7], in [8], in assay [9] and in assay [10] was more than 100 µM throughout.

For `COc1ccc(-c2cc3cc(Cl)cc(Cl)c3oc2=O)cc1OC`, the TGI in assay [1], in assay [2], in [3], in assay [4], in [5] and in [6] was more than 100 µM throughout. Further, the TGI in assay [7], in [8], in assay [9] and in [10] was more than 100 µM in each case.

`CSc1ncc2c(n1)-c1ccccc1OC2NC1CC1` (stereo unspecified): the TGI in assay [1] was more than 100 µM; in assay [2], more than 100 µM; in assay [3] it was 28 µM; in assay [4], more than 100 µM; in [5] it was more than 100 µM; in assay [6], more than 100 µM. In addition, the TGI in assay [7], in assay [8], in [9] and in assay [10] was more than 100 µM in each case.

On to `COc1ccc(C2c3cc4c(cc3OC(Nc3ccccc3)C2C)OCO4)cc1` (stereo unspecified), for which the TGI in assay [1], in [2], in assay [3], in [4], in assay [5] and in assay [6] was more than 100 µM each time. In addition, the TGI in [7], in [8], in assay [9] and in assay [10] was more than 100 µM throughout.

In the case of `CS(=O)(=O)Nc1ccc2ccccc2c1`, the TGI in assay [1], in [2], in assay [3], in assay [4], in assay [5] and in assay [6] was more than 100 µM throughout. The TGI in [7], in [8], in assay [9] and in assay [10] was more than 100 µM each time.

Consider `O=c1c2cc([N+](=O)[O-])ccc2oc2nc3n(c(=O)c12)CCCS3`, for which the TGI in [1], in assay [2], in assay [3], in assay [4], in assay [5] and in [6] was more than 100 µM throughout. Moreover, the TGI in [7], in [8], in assay [9] and in assay [10] was more than 100 µM in each case.

`CSc1nc(=O)c2nc(-c3cccs3)c(-c3cccs3)nc2n1C`: the TGI in [1] was 83.5 µM; in [2], more than 100 µM; in [3] it was more than 100 µM; in assay [4], more than 100 µM; in assay [5], more than 100 µM; in assay [6] it was more than 100 µM. Moreover, the TGI in assay [7], in assay [8], in assay [9] and in assay [10] was more than 100 µM throughout.

With `CCC1([N+](=O)[O-])CN(N=O)C1`, the TGI in assay [1], in [2], in assay [3], in assay [4], in [5] and in assay [6] was more than 100 µM each time. Besides, the TGI in assay [7], in assay [8], in assay [9] and in assay [10] was more than 100 µM throughout.

Consider `Cc1c(C(=O)NNc2ccccc2)n2c(=S)[nH]nc2c2ccccc12`, for which the TGI in assay [1], in assay [2], in assay [3], in assay [4], in assay [5] and in assay [6] was more than 100 µM in each case. For the same molecule, the TGI in assay [7], in assay [8], in assay [9] and in [10] was more than 100 µM throughout.

Take `CC1=C(C(=O)OCCO[N+](=O)[O-])C(c2ccccc2[N+](=O)[O-])C(C(=O)OC(C)C)=C(C)N1` (stereo unspecified): the TGI in assay [1] was 31.4 µM; in assay [2], 30.4 µM; in [3], 46.2 µM; in assay [4] it was 34.1 µM; in assay [5] it was 29.8 µM; in [6], 39.9 µM. For the same molecule, the TGI in [7] came out at 28.7 µM; in assay [8] it was 30.9 µM; in assay [9], 28.6 µM; in assay [10], 41.9 µM.

`N#Cc1c(-c2ccc([N+](=O)[O-])cc2)c(C#N)c(=O)n(NS(=O)(=O)c2ccccc2)c1O`: the TGI in assay [1], in [2], in [3], in assay [4], in [5] and in assay [6] was more than 100 µM each time. Also, the TGI in assay [7], in assay [8], in assay [9] and in assay [10] was more than 100 µM throughout.

For `CN(C)CCNCCCNc1c2ccccc2nc2cccc([N+](=O)[O-])c12`, the TGI in [1] was found to be 0.0346 µM; in [2] it was 0.624 µM; in assay [3], 0.0588 µM; in [4], 0.0741 µM; in assay [5] it was 0.0594 µM; in assay [6] it was 1.34 µM. Further, the TGI in assay [7] is 0.525 µM; in assay [8], 0.569 µM; in [9], 0.236 µM; in [10], 0.0999 µM.
